Reference: PubChem BioAssay (NCI)
“And” between values parts separate entries of the source, which are not always exact repeats. Equal entries are not always repeated.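 Grown in 96-well plates, cells were treated for 48 hours with each compound at five concentrations. Insufficient inhibition: endpoint recorded as highest concentration tested. Abbreviation: GI50, concentration required for 50% inhibition of growth. TGI: total growth inhibition.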

Key:
Experiment in all cases: growth of human tumour cells (NCI), 48 h
[1] = test system: HT29 colon
[2] = test system: NCI-H460 lung
[3] = test system: HS 578T breast
[4] = test system: KM12 colon
[5] = test system: RPMI-8226 leukemia
[6] = test system: IGROV1 ovarian
[7] = test system: SF-295 CNS
[8] = test system: SK-MEL-5 melanoma
[9] = test system: ACHN renal
[10] = test system: UO-31 renal
[11] = test system: SK-MEL-2 melanoma
[12] = test system: CAKI-1 renal
[13] = test system: SN12C renal

Structure (SMILES)	TGI [1] [µM]	TGI [2] [µM]	TGI [3] [µM]	TGI [4] [µM]	TGI [5] [µM]	TGI [6] [µM]	TGI [7] [µM]	TGI [8] [µM]	TGI [9] [µM]	TGI [10] [µM]	TGI [11]	TGI [12] [µM]	TGI [13] [µM]	GI50 [2] [µM]	GI50 [4] [µM]	GI50 [5] [µM]	GI50 [6] [µM]	GI50 [8] [µM]	GI50 [11] [µM]
O=C1NC(N/N=C/c2ccccc2)=N/C1=C\c1cccs1	> 55.3	> 100	9.94	> 70.9	> 41	34.4	34.6	20.7	33.5	48.7	20.6 µM	33.3	46.4	–	–	–	–	–	–
COc1ccc(C(=O)Cn2c(C(C)=O)nc3ccccc32)cc1	> 100	> 61.7	> 100	> 100	> 100	> 100	80.6	> 100	> 100	> 57.3	> 100 µM	> 100	> 100	–	–	–	–	–	–
CCN(CC)c1nc(N(C)C)c2ccc(OC)cc2n1	26.1	26.5	> 100	48.2	31	> 100	> 100	24.7	59.6	–	36.5 µM	> 100	48.7	–	–	–	–	–	–
Cn1c(=O)c2c(ncn2CCSS(=O)(=O)O)n(C)c1=O	> 100	> 100	> 100	> 100	> 100	> 100	> 100	> 100	> 100	> 100	> 100 µM	> 100	> 100	–	–	–	–	–	–
COc1cc(C2c3[nH]c4ccc(F)cc4c3C[C@H]3COC(=O)N23)cc(OC)c1O (stereo partly drawn)	26.8	19.8	13	26.3	> 100	> 100	53.8	34.7	26.4	28.9	60.3 µM	44.7	35.5	–	–	–	–	–	–
COc1cc(CNC(=O)[C@H](Cc2ccc(O)cn2)NC(C)=O)cc(OC)c1	> 100	> 100	> 100	> 100	> 100	> 100	> 100	> 100	> 100	> 100	> 100 µM	> 100	> 100	–	–	–	–	–	–
O=c1c[n+](-c2ccccc2)[nH]o1	> 100	> 100	> 100	> 100	> 100	> 100	> 100	> 100	> 100	> 100	> 100 µM	> 100	> 100	–	–	–	–	–	–
COc1ccccc1-c1nc2ccccc2c(=O)[nH]1	–	> 100	> 100	> 100	> 100	> 100	> 100	> 100	> 100	> 100	> 100 µM	> 100	> 100	–	–	–	–	–	–
BrCCC[P+](c1ccccc1)(c1ccccc1)c1ccccc1	> 100	> 100	> 79.6	58.1	> 100	> 66.9	> 100	21	> 100	> 100	82.2 µM	> 100	> 100	–	–	–	–	–	–
OCCCCn1cc(Cn2ncc3c(SCc4ccccc4)ncnc32)nn1	> 100	> 100	> 100	> 100	> 100	> 100	> 100	54.5	> 100	> 100	> 100 µM	> 100	> 100	–	–	–	–	–	–
NC1=NN(c2ccccc2)C2(c3ccncc3C(=O)O)C1C(N)=NN2c1ccccc1 (stereo not drawn)	> 100	> 100	> 100	> 100	> 100	> 100	> 100	> 100	> 100	> 100	> 100 µM	> 100	> 100	–	–	–	–	–	–
CCOC(=O)/C=C(\C(=O)OCC)n1cnc2c(N)ncnc21	23.1	38.7	51.5	30.5	5.4	26.7	32.1	28.6	18.5	30	30.7 µM	2.86	10.8	–	–	–	–	–	–
O=C(N/N=C/C=C/c1ccc([N+](=O)[O-])o1)c1ccc(Br)s1	34.2	> 100	31.7	40.5	23.4	16.4	> 100	46.1	38.7	48.9	56.3 µM	66.2	70.5	–	–	–	–	–	–
O=C(Nc1nncs1)NS(=O)(=O)n1cnc2ccccc21	> 100	> 100	> 100	> 100	> 100	> 100	> 100	> 100	> 100	–	> 100 µM	> 100	> 100	–	–	–	–	–	–
COc1cc(/C=C/c2sc3ccccc3[n+]2C)ccc1N(C)C	32.4	38	> 100	21.7	16.2	22	> 100	18.5	28.6	–	8.31 µM and 29.3 µM	> 100	25.5	13.4	10.1	3.15	9.14	5.49	12.4
CCOC(=O)NC(NNc1ccc([N+](=O)[O-])cc1[N+](=O)[O-])(C(F)(F)F)C(F)(F)F	> 100	> 100	> 100	> 100	47.4	> 100	> 100	> 100	> 100	57.6	> 100 µM	> 100	> 100	–	–	–	–	–	–
CC(=O)N1CC[N+](C)(CCCCN2c3ccccc3Sc3cc(N=[N+]=[N-])ccc32)CC1	> 100	> 100	> 100	> 100	> 100	> 100	> 100	> 100	> 100	> 100	> 100 µM	> 100	> 100	–	–	–	–	–	–
O=C1OC2c3ccccc3C(=O)C2(c2ccccc2)N1c1ccccc1 (stereo not drawn)	> 200	> 200	> 200	> 200	> 200	> 200	> 200	> 200	> 200	> 200	> 200 µM	> 200	> 200	–	–	–	–	–	–

Structure (SMILES)	TGI [1] [µM]	TGI [2] [µM]	TGI [3] [µM]	TGI [4] [µM]	TGI [5] [µM]	TGI [6] [µM]	TGI [7] [µM]	TGI [8] [µM]	TGI [9] [µM]	TGI [10] [µM]	TGI [11]	TGI [12] [µM]	TGI [13] [µM]	GI50 [2] [µM]	GI50 [4] [µM]	GI50 [5] [µM]	GI50 [6] [µM]	GI50 [8] [µM]	GI50 [11] [µM]
c1nc(SSc2ncnc3nc[nH]c23)c2[nH]cnc2n1	> 100	> 100	> 100	> 44.1	> 100	> 100	43.7	37.6	> 100	> 100	> 100 µM	1.07	> 73.3	–	–	–	–	–	–
COCC(=O)OC1CCn2c1nc1c2C(=O)C(C)=C(NC(C)=O)C1=N (stereo not drawn)	> 47.4	31	18.8	38.2	6.79	24.2	30.4	5.92	19.9	24	6.09 µM	23.2	13.4	–	–	–	–	–	–
Cc1cc(N(CCC#N)CCC#N)ccc1/C(N=Nc1ccccc1)=N\NC(=O)c1ccccc1	35.5	91	75.8	> 100	> 100	> 100	> 100	> 100	41.3	65.1	> 100 µM	72.6	> 100	–	–	–	–	–	–
Cc1nn(-c2ccccc2)c2c1C(c1cc3ccccc3nc1Cl)NC(=S)N2 (stereo not drawn)	> 100	> 100	> 100	> 100	48.7	37.6	> 100	> 100	> 100	50.4	44.8 µM	> 100	> 100	–	–	–	–	–	–
COc1ccc(C(=O)/C=C/c2ccc(OCC(=O)O)cc2)cc1	> 100	–	> 100	> 100	> 100	> 100	> 100	> 100	> 100	> 100	> 100 µM	> 100	> 100	–	–	–	–	–	–
O=C1c2ccccc2C(=O)c2c1oc(=O)c1ccccc21	13	10.9	23.2	12.8	19.2	10.4	7.41	4.51	11.1	11.4	10.1 µM	15.5	7.91	–	–	–	–	–	–
CC(C)CCNC(=O)c1ccc(CNC(=O)/C=C/c2csc(-c3ccccc3)n2)cc1	> 100	> 100	> 100	> 100	> 100	> 100	> 100	> 100	> 100	58.6	> 100 µM	> 100	> 100	–	–	–	–	–	–
Fc1ccc(NCn2nc(COc3ccccc3Cl)n(/N=C/c3ccc(-c4ccc(Cl)cc4Cl)o3)c2=S)cc1Cl	> 100	> 100	> 100	99	72	> 100	> 100	29.9	> 100	> 100	62.6 µM	> 100	–	–	–	–	–	–	–
CC1(C)CCCCCC(C)(CCCCCCCCCCCO)C1=O (stereo not drawn)	24.1	31.9	32.4	32.7	47.2	32.6	29.6	31.3	25.7	30.9	30.4 µM	28.6	29.9	–	–	–	–	–	–
COP(=O)(OC)C(O)/C=C(\Cl)c1ccc(Cl)cc1 (stereo not drawn)	> 100	> 100	> 100	> 100	63.4	> 100	> 100	67.8	> 100	> 100	> 100 µM	> 100	> 100	–	–	–	–	–	–
c1ccc2c(c1)CCN1CCc3c([nH]c4ccccc34)C21 (stereo not drawn)	99.3	> 100	> 100	> 100	55.1	> 100	57.4	29.7	> 100	> 100	57.1 µM	> 100	> 100	–	–	–	–	–	–
Cc1ccc(S(=O)C[C@@]2(C(F)F)NC(=O)NC2=O)cc1 (stereo partly drawn)	> 100	> 100	> 100	> 100	> 100	> 100	> 100	> 100	> 100	> 100	> 100 µM	> 100	–	–	–	–	–	–	–
O=C1/C(=C/c2ccc(Cl)cc2)N=C(c2ccccc2)N1C1Nc2cc3c(cc2S1)NC(N1C(=O)/C(=C/c2ccc(Cl)cc2)N=C1c1ccccc1)S3 (stereo not drawn)	> 100	> 100	> 100	> 100	> 100	> 100	> 100	> 100	> 100	> 100	> 100 µM	> 100	–	–	–	–	–	–	–
COc1ccc(/C=C(\C(=O)OCC(C)C)c2ccc(OC)c(OC)c2)cc1OC	> 100	> 100	> 100	–	> 100	> 100	> 100	> 100	> 100	> 100	> 100 µM	> 100	> 100	–	–	–	–	–	–
COc1cc(S(=O)(=O)Nc2ccc(-c3csc(N4C(=O)C(C)SC4c4ccccc4O)n3)cc2)ccc1Cl (stereo not drawn)	> 100	–	90.4	> 100	> 100	> 100	> 100	> 100	> 100	> 100	91.7 µM	> 100	> 100	–	–	–	–	–	–
O=c1oc2cccnc2n1CCN1CCN(c2ccc(Oc3ccccc3)cc2)CC1	> 100	> 100	> 100	–	> 100	> 100	> 100	> 100	> 100	> 100	> 100 µM	> 100	–	–	–	–	–	–	–
CCCC(=O)/C=C/S/C=C/C(=O)CCC	> 100	> 100	36.3	37.3	–	47.9	66.3	16.1	6.92	> 100	> 100 µM	7.4	28	–	–	–	–	–	–
